Assays:
PHD2 = assay: qPCR of HIF-1α target gene PHD2; type: cell-based, murine; conditions: IOX2 or FG-4592 treatment, vs untreated controls
Procedure: (§1) Total RNA was isolated using ReliaPrep™ RNA Miniprep Systems (Promega), and reverse transcribed to cDNA using the iScript cDNA synthesis kit (BioRad), according to the Manufacturer's instructions. Real-Time Quantitative PCR was performed on 10 ng of cDNA template, 0.2 µM primers, and GoTaq® qPCR Master Mix (Promega) in 20 µl final volume using a StepOnePlus® Real-Time PCR System (Applied Biosystem). […] RPL13 was used as the housekeeping gene. The amplification program consisted in an initial denaturation at 95°C for 3 minutes, followed by 40 cycles of 5 seconds each at 95°C and 30 seconds at 57°C; WNT7a was amplified at 53°C. Relative quantification of target genes was performed in triplicate and calculated by the equation 2^-ΔΔCt.
as §1, with “ReliaPrepTM” for “ReliaPrep™”, “2-ΔΔCt.” for “2^-ΔΔCt.”

MyoD = assay: Western blot of MyoD nuclear localization; type: cell-based, murine; conditions: IOX2 or FG-4592 for 24 hours
Procedure: (§2) For nuclei separation, 5 x 10^6 cells were collected after enzymatic digestion with trypsin (Merck), centrifuged at the maximum speed, resuspended in 400 µl of Buffer A (10 mM KCl, 0.1 mM EDTA, 1 mM DTT, 10 mM Hepes, pH 7.9), containing protease and phosphatase inhibitors cocktail (Merck), and incubated on ice for 20 minutes. Then, 10% NP40 was added to the cell suspension, mixed for 40 seconds, and centrifuged 40 seconds at the maximum speed. After centrifugation, the pellet was resuspended in 80 µl of Buffer C (0.4M NaCl, 1 mM EDTA, 1 mM DTT, 20 mM Hepes, pH 7.9), containing a protease and phosphatase inhibitors cocktail, and then mixed for 30 minutes at 4°C at the maximum speed. Finally, the nuclear suspension was centrifuged for 5 minutes at 4°C at the maximum speed, collected and transferred in a new tube. The total protein content was determined with the BCA Protein Assay Kit (Pierce), according to the manufacturer's instructions.
(§3) Proteins were denaturated by boiling for 10 minutes in sample buffer (0.6 g/100 mL Tris, 2 g/100 mL SDS, 10% glycerol, 1% 2-mercaptoethanol, pH 6.8) and loaded into 10% SDS-PAGE gel, then transferred onto a nitrocellulose membrane (Trans-blot, Bio-Rad Laboratories) by electroblotting. Nitrocellulose membranes were incubated with a blocking solution containing 5% (w/v) non-fat dry milk or 5% (w/v) BSA (Merck) in Tris-buffer saline with 0.1% Tween® 20 (TBS-T) for 1 hour. […] Membranes were washed three times for 10 minutes with TBS-T, and then incubated with the appropriate anti-mouse, anti-rabbit, or anti-goat HRP-conjugated secondary antibodies (Dako, Agilent Technologies), 1:2000 dilution, for 1 hour at room temperature. After three washes for 10 minutes with TBS-T, the immunoreactive bands were visualized using the enhanced chemiluminescence detection kit reagents (ECL Advance, GeHealthcare), according to the manufacturer's instructions.
as §2, with “For total proteins extraction, 7.5 x 10^4 cells were seeded and harvested at 7th days of skeletal muscle differentiation, as previously described. Cells were collected after enzymatic digestion with trypsin (Merck), lysed by sonication and centrifuged at 800 xg for 10 minutes. Supernatant was used to determine total protein content with the BCA Protein Assay Kit (Pierce), according to the manufacturer's instructions. For” for “For”, “(0.4 M” for “(0.4M”

murine myoblasts C2C12 = assay: Skeletal muscle differentiation, MHC immunofluorescence (fusion and differentiation indexes); type: cell-based; conditions: IOX2 or FG-4592 24 hours in GM, then 7 days in DM without inhibitor; vs untreated controls
Procedure: (§4) The DM was changed every day for 7 days. Cells were analyzed at 24 hours post-treatment (PT), at 3rd and 7th days of skeletal muscle differentiation.
After differentiation for 7 days in DM, cells were washed with phosphate saline buffer (PBS) and fixed for 15 minutes in 4% (w/v) paraformaldehyde at room temperature. For permeabilization and blocking, cells were incubated for 1 hour in the presence of PBS 0.1% (v/v) Triton X-100 (TX-100, Merck) and 5% (w/v) FBS (Merck) at room temperature. […] After incubation, cells were washed three times in PBS and incubated for 1 hour at room temperature with an anti-mouse FITC-conjugated secondary antibody (Jackson ImmunoResearch), diluted 1:200. […] Myogenesis was assessed by measuring the myotube area and the number of myonuclei per myotube using a fluorescent microscope (Olympus TH4-200) equipped with an acquisition camera. To quantify both differentiation and fusion indexes, ten fields were chosen randomly and, for each field, a minimum of one hundred myosin-positive myotubes with more than two myonuclei were measured using the ImageJ v1.49o software. The area and the number of nuclei per myotube was the mean of ten measurements averaged from three different experiments.
as §4

MYOR = assay: qPCR of MYOR; type: cell-based, murine; conditions: IOX2 or FG-4592 treatment, vs controls
Procedure: as §1

MHC = assay: Western blot of MHC in WNT7a-KO versus wild type myoblasts at end of differentiation; type: cell-based, murine; conditions: WNT7a-KO vs wild type cells, inhibitor pre-treated
Procedure: Cells were collected after enzymatic digestion with trypsin (Merck), lysed by sonication and centrifuged at 800 xg for 10 minutes. Supernatant was used to determine total protein content with the BCA Protein Assay Kit (Pierce), according to the manufacturer's instructions.
as §3
Therefore, WNT7a silencing was conducted by Crispr/Cas9 genome editing in C2C12 murine myoblasts and the effects on myogenesis were evaluated.

SMILES | increase in the expression of PHD2 (PHD2) [fold] | increase of the nuclear localization of MyoD (MyoD) [fold] | increase in the differentiation index (murine myoblasts C2C12) [fold] | MYOR mRNA level down-regulated (MYOR) [fold] | decrease of MHC expression (MHC) [%] | fusion index (murine myoblasts C2C12)
Cc1nc(C(=O)NCC(=O)O)c(O)c2ccc(Oc3ccccc3)cc12 [FG-4592, Roxadustat] | 4.8 | 1.5 | 1.3 | 2.6 | 36 | –
O=C(O)CNC(=O)c1c(O)c2ccccc2n(Cc2ccccc2)c1=O [IOX2] | 4.4 | 1.6 | 1.5 | 2.2 | 18 | no significant changes
